Tests used:
mouse [1] = conditions: Prenatal developmental toxicity study, swiss albino, Oral, Gavage/Intubation, dose end: 16 GD
rat [2] = conditions: Prenatal developmental toxicity study, wistar, Injection, Intramuscular, dose end: 15 GD
rat [3] = conditions: Prenatal developmental toxicity study, sprague dawley, Oral, [Not Specified], dose end: 15 GD
rat [4] = conditions: Prenatal developmental toxicity study, sprague dawley, Injection, Intramuscular, dose end: 15 GD
rat [5] = conditions: Prenatal developmental toxicity study, sprague dawley, Injection, Subcutaneous, dose end: 15 GD
rat [6] = conditions: Prenatal developmental toxicity study, sprague dawley, Oral, Gavage/Intubation, dose end: 19 GD
rat [7] = conditions: Prenatal developmental toxicity study, sprague dawley, Oral, Gavage/Intubation, dose end: 19 GD; remark: listed apart in the source
mouse [8] = conditions: Prenatal developmental toxicity study, other, Oral, Water, dose end: 19 GD
[9] = group: developmental, developmental / developmental malformation / general / hemorrhage + developmental / developmental malformation / kidney / dilated renal …
[10] = group: maternal, reproductive / reproductive performance / implantations / implantations + reproductive / reproductive performance / postimplantation loss / …
[11] = group: developmental, developmental / developmental malformation / bone / wavy + developmental / developmental malformation / heart / membranous ventricular …
[12] = group: maternal, reproductive / reproductive performance / postimplantation loss / postimplantation loss
[13] = group: developmental, developmental / developmental malformation / bone / wavy + systemic / in life observation / body weight / fetal weight
[14] = group: developmental, developmental / developmental malformation / bone / unossified + systemic / in life observation / body weight / fetal weight
[15] = group: maternal, systemic / in life observation / body weight / body weight gain + systemic / in life observation / clinical signs / salivation
[16] = group: maternal, systemic / in life observation / body weight / body weight gain + systemic / in life observation / clinical signs / salivation + systemic / …
[17] = group: maternal, reproductive / reproductive performance / postimplantation loss / postimplantation loss + reproductive / reproductive performance / …
[18] = group: developmental, developmental / developmental malformation / bone / delayed ossification + developmental / developmental malformation / bone / exencephaly…
[19] = group: maternal, reproductive / reproductive performance / resorptions / resorptions + systemic / in life observation / body weight / body weight + systemic…

CC(C)OC(=O)C(C)(C)Oc1ccc(C(=O)c2ccc(Cl)cc2)cc1 [Fenofibrate]
LEL (mouse [1]; [9]): 11.7 mg/kg/day | LOAEL (mouse [1]; [9]): > 586 mg/kg/day | NEL (mouse [1]; [9]): < 11.7 mg/kg/day | NOAEL (mouse [1]; [9]): ≥ 586 mg/kg/day | LEL (mouse [1]; [10]): 586 mg/kg/day | LOAEL (mouse [1]; [10]): > 586 mg/kg/day | NEL (mouse [1]; [10]): 117 mg/kg/day | NOAEL (mouse [1]; [10]): ≥ 586 mg/kg/day

OCC(O)CO [Glycerol]
LEL (rat [2]; [11]): 600 mg/kg/day | LOAEL (rat [2]; [11]): > 600 mg/kg/day | NEL (rat [2]; [11]): < 600 mg/kg/day | NOAEL (rat [2]; [11]): ≥ 600 mg/kg/day | LEL (rat [2]; [12]): 600 mg/kg/day | LOAEL (rat [2]; [12]): > 600 mg/kg/day | NEL (rat [2]; [12]): < 600 mg/kg/day | NOAEL (rat [2]; [12]): ≥ 600 mg/kg/day | LEL (rat [3]; [11]): 600 mg/kg/day | LOAEL (rat [3]; [11]): > 1200 mg/kg/day | NEL (rat [3]; [11]): < 600 mg/kg/day | NOAEL (rat [3]; [11]): ≥ 1200 mg/kg/day | LEL (rat [3]; [12]): 600 mg/kg/day | LOAEL (rat [3]; [12]): > 1200 mg/kg/day | NEL (rat [3]; [12]): < 600 mg/kg/day | NOAEL (rat [3]; [12]): ≥ 1200 mg/kg/day | LOAEL (rat [4]; [11]): > 1200 mg/kg/day | NOAEL (rat [4]; [11]): ≥ 1200 mg/kg/day | LEL (rat [4]; [13]): 300 mg/kg/day | NEL (rat [4]; [13]): < 300 mg/kg/day | LEL (rat [4]; [12]): 300 mg/kg/day | LOAEL (rat [4]; [12]): > 1200 mg/kg/day | NEL (rat [4]; [12]): < 300 mg/kg/day | NOAEL (rat [4]; [12]): ≥ 1200 mg/kg/day | LEL (rat [5]; [11]): 600 mg/kg/day | LOAEL (rat [5]; [11]): > 600 mg/kg/day | NEL (rat [5]; [11]): < 600 mg/kg/day | NOAEL (rat [5]; [11]): ≥ 600 mg/kg/day | LEL (rat [5]; [12]): 600 mg/kg/day | LOAEL (rat [5]; [12]): > 600 mg/kg/day | NEL (rat [5]; [12]): < 600 mg/kg/day | NOAEL (rat [5]; [12]): ≥ 600 mg/kg/day

CN=C=S [Methyl isothiocyanate]
LEL (rat [6]; [14]): 30 mg/kg/day | LOAEL (rat [6]; [14]): 30 mg/kg/day | NEL (rat [6]; [14]): 10 mg/kg/day | NOAEL (rat [6]; [14]): 10 mg/kg/day | LEL (rat [6]; [15]): 10 mg/kg/day | LOAEL (rat [6]; [15]): 10 mg/kg/day | NEL (rat [6]; [16]): 3 mg/kg/day | NOAEL (rat [6]; [16]): 3 mg/kg/day

CCC#N [Propionitrile]
LEL (rat [7]; group: developmental, developmental / developmental malformation / bone / unossified): 40 mg/kg/day | LOAEL (rat [7]; [14]): > 80 mg/kg/day | NEL (rat [7]; [14]): 20 mg/kg/day | NOAEL (rat [7]; [14]): ≥ 80 mg/kg/day | LEL (rat [7]; [17]): 80 mg/kg/day | LOAEL (rat [7]; [17]): > 80 mg/kg/day | NEL (rat [7]; [17]): 40 mg/kg/day | NOAEL (rat [7]; [17]): ≥ 80 mg/kg/day

Cl.Cl.NCCNCCNCCN [Trientine hydrochloride]
LOAEL (mouse [8]; [18]): > 1600 mg/kg/day | NEL (mouse [8]; [18]): 400 mg/kg/day | NOAEL (mouse [8]; [18]): ≥ 1600 mg/kg/day | LEL (mouse [8]; group: developmental, developmental / developmental malformation / bone / delayed ossification + developmental / developmental malformation / bone / microcephaly…): 800 mg/kg/day | LEL (mouse [8]; [19]): 1600 mg/kg/day | LOAEL (mouse [8]; [19]): > 1600 mg/kg/day | NEL (mouse [8]; [19]): 800 mg/kg/day | NOAEL (mouse [8]; [19]): ≥ 1600 mg/kg/day
